# Values joined by “and” are separate entries in the source; they are usually repeats but may differ in a detail not shown here. Equal entries are not always repeated. “Also recorded” adds a separate entry of the source. Where two headings read alike, the source gives them in different places.
# Experiments:
# [1] = target: Eg.TRPMPZQ (Echinococcus granulosus, UniProt W6UVV9); assay: cell-based; conditions: HEK293, Ca2+ reporter, mean ± standard deviation; for Emax: read-out: Bmax, Eg.TRPMPZQ activation
# Chain of Eg.TRPMPZQ (W6UVV9 entry or part of it): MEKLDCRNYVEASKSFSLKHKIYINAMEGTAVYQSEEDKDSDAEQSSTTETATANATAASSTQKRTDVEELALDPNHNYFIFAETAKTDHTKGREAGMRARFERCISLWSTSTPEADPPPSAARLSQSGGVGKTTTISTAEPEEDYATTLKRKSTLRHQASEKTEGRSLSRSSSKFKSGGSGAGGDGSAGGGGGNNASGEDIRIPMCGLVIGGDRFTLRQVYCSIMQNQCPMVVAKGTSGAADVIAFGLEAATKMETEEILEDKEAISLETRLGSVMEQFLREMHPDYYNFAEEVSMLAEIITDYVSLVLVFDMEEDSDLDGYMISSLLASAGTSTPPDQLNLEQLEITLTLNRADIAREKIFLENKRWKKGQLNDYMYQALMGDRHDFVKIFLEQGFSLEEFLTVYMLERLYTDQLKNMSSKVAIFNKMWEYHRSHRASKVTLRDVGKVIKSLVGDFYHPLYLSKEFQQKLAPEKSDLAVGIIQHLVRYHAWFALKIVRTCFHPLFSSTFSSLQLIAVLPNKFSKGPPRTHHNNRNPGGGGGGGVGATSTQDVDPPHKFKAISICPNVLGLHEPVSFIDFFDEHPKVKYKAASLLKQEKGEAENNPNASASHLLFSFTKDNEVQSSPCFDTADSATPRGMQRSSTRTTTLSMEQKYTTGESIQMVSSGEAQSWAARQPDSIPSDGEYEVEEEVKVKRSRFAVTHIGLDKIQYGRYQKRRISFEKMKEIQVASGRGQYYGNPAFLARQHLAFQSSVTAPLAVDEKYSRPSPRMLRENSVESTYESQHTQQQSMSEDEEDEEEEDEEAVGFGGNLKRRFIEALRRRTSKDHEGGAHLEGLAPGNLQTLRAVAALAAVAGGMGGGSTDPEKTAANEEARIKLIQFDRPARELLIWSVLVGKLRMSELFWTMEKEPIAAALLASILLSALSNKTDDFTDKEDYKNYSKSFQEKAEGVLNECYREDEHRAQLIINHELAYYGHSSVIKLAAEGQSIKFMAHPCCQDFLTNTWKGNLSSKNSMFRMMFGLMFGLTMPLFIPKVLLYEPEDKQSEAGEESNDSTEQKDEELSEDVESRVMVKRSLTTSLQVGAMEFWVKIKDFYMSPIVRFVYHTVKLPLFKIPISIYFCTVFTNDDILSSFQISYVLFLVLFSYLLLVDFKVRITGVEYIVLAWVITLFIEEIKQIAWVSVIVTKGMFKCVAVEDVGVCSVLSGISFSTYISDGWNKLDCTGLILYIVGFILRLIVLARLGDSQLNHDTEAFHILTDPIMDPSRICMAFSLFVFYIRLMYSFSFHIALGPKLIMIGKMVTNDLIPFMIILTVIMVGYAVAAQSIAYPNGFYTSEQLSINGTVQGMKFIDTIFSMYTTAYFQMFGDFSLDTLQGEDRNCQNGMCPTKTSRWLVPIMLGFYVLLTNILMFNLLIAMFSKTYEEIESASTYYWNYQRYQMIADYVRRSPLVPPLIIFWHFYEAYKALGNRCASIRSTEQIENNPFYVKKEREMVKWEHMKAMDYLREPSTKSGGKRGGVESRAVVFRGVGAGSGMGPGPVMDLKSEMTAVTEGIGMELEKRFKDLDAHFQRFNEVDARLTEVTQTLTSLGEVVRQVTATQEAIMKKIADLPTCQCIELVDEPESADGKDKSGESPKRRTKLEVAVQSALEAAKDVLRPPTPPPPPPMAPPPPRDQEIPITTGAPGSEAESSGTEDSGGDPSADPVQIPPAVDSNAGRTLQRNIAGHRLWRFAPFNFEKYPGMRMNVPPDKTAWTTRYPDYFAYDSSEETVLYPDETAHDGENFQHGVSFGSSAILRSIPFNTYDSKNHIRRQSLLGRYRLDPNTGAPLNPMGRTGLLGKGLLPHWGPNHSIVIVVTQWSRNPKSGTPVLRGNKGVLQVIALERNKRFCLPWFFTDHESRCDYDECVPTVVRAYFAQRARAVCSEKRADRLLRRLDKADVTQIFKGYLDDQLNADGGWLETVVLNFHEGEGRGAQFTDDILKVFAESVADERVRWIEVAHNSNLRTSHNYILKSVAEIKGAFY
# [2] = test system: adult schistosomes (male and female worms); assay: Adult worm ex vivo high-content image-based motility assay; format: cell-based, Schistosoma mansoni
# Method: Adult schistosomes’ motility was determined using a high-content assay previously developed by our group, , with images analyzed in CellProfiler software. More details are provided in the Supporting Information.
# (§1) Adult worm ex-vivo high-content assay
# (§2) “Area” and “False Negative Rate” from the MeasureObjectSizeShape and MeasureObjectOverlap modules, respectively. These measurements were then modeled by a multilevel generalized linear statistical model. The effects of the experimental treatments on […]
# (§3) The half-maximal inhibitory
# (§4) Windows (GraphPad Software, Boston, MA, USA; www.graphpad.com). […]
# with DMSO as a negative control.
# [3] = target: Sm.TRPMPZQ (wild-type) (Schistosoma mansoni, UniProt A0A5K4F0X5); assay: Ca2+ reporter (FLIPR) activation assay, wild-type Sm.TRPMPZQ in HEK293 cells; format: cell-based
# Chain of Sm.TRPMPZQ (wild-type) (A0A5K4F0X5 entry or part of it): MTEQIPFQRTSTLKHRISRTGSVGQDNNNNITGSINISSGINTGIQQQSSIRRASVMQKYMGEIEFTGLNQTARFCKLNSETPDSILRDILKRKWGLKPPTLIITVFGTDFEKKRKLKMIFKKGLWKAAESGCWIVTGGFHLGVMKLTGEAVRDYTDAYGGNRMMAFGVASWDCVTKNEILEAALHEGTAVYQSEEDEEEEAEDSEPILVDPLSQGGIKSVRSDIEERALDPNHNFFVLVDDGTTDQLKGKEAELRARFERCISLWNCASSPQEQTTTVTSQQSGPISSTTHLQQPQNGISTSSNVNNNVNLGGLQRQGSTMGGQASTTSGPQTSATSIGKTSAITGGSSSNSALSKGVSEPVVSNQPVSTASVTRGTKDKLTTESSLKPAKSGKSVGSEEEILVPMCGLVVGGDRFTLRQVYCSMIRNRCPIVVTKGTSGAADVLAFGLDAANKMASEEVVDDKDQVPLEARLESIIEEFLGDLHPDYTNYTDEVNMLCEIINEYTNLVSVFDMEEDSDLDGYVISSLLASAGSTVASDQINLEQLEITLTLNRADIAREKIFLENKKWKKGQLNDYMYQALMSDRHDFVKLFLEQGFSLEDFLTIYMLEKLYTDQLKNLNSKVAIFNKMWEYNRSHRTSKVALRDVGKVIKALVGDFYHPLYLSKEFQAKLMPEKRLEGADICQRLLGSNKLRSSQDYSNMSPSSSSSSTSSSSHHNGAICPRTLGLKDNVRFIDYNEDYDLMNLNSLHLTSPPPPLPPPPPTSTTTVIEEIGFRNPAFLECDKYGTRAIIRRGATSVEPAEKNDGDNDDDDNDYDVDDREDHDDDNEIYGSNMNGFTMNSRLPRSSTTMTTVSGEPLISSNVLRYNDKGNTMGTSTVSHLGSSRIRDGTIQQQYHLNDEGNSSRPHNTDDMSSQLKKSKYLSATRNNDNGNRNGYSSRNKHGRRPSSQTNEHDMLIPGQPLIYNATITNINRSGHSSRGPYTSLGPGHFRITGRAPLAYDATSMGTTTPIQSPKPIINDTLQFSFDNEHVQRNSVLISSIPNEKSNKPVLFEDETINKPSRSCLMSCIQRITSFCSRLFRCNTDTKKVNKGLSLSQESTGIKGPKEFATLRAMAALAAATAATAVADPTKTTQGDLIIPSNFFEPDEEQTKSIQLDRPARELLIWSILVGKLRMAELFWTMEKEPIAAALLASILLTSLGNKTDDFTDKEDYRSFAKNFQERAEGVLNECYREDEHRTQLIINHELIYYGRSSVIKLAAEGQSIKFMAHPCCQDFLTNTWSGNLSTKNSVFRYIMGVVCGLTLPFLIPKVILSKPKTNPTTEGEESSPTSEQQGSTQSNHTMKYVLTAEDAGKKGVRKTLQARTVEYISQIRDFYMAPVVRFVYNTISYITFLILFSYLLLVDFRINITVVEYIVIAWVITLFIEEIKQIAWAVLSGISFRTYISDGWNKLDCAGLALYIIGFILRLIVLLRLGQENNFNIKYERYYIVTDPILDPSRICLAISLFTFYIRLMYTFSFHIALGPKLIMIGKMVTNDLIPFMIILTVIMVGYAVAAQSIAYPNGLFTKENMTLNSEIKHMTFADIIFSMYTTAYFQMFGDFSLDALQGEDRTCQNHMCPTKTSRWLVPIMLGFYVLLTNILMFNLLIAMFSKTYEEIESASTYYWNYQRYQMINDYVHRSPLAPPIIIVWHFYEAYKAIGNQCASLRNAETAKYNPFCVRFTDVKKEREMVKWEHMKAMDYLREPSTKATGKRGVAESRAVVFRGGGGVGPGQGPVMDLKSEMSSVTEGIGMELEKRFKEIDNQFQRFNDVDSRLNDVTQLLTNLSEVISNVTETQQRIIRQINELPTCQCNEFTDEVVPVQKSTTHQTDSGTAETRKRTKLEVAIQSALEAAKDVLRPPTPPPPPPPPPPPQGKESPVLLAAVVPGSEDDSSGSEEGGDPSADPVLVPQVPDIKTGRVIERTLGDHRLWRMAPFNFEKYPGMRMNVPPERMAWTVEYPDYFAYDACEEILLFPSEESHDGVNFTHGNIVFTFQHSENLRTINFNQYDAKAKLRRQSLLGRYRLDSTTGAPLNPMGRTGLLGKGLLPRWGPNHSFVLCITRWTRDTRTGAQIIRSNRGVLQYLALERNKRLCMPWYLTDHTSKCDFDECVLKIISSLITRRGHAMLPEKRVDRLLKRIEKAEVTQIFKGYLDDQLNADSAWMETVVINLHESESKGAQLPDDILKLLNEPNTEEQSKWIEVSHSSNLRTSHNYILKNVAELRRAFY
# Method: (§5) The Ca^2+ reporter assay was performed using a Fluorescence Imaging Plate Reader (FLIPR) system, as described in the Supporting Information. […]
# as §3, §4
# (§6) with DMSO as a negative control. […]
# (§7) reader. […] The fluorescence
# (§8) Untransfected HEK293 cells were used as a control.
# (§9) 10% fetal bovine serum (FBS). […]
# (§10) atmosphere containing 5% CO₂. Following incubation, the growth medium was removed and […]
# buffer containing 2.5 mM probenecid in HBSS (with Ca²⁺ and Mg²⁺), 20 mM HEPES, 0.3% BSA (Sigma, A7030), and 0.03% L-ascorbic acid (Sigma). Cells were incubated for 40 minutes at 37 °C and subsequently for 20 minutes at room temperature. […]
# prepared in assay buffer without dye and probenecid and dispensed into separate flat-bottom 384-well plates. Calcium flux measurements were performed at room temperature using a […]
# (§11) instrument (Molecular Devices). Baseline fluorescence was recorded for 20 seconds, followed by the addition of 5 µL of each drug solution, after which fluorescence was measured continuously for 250 seconds. […]
# [4] = in vitro; conditions: human, HepG2 cytotoxicity (CC50)
# Method: (§12) Next, we conducted a more detailed investigation by performing dose–response assays with each compound on HepG2 hepatic epithelial cells, as the liver is one of the major organs affected in intestinal schistosomiasis.
# (§13) More details are provided in the Supporting Information.
# as §1
# (§14) Male and female worms were placed in 96-well microplates (one worm per well) and incubated […]
# (§15) to 72 hours. Brightfield timelapse images (100 images, 0.3-second intervals) were captured from each well before, immediately after, and every 24 hours following compound addition using an ImageXpress Micro Confocal High Content System equipped with a 2x objective. Image analysis was performed through a custom pipeline in CellProfiler software (v. 4.2.1, Windows OS).57 During analysis, the area of each worm and its displacement between consecutive image captures (i.e., images taken at successive time points) were measured using the parameters “Area” and “False Negative Rate” from the MeasureObjectSizeShape and MeasureObjectOverlap modules, respectively. These measurements were then modeled by a multilevel generalized linear statistical model. The effects of the experimental treatments on parasite motility were estimated with the integrated nested Laplace approximation (INLA) method, available in the INLA package of R (https://www.r-inla.org). The half-maximal inhibitory concentration (EC50) of each compound was calculated based on the worms' estimated motility using the […] 4-parameter logistic equation in GraphPad Prism version 9.0.0 for Windows (GraphPad Software, Boston, MA, USA; www.graphpad.com). […]
# (§16) either at a fixed concentration (10 µM) or across a range of concentrations (0.0001–300 µM), or with DMSO as a negative control. Two hours before the end of the experiment (t0), a resazurin solution (final concentration: 0.01 mg/mL) was added to each well and the first fluorescence […]
# (§17) reader. At the end of the incubation (t1), a second reading was performed. The fluorescence attributed solely to resorufin was measured by subtracting the fluorescence readings at t0 from those at t1. The results were expressed as percentual cell viability considering negative control
# [5] = test system: HepG2 hepatic epithelial cells; assay: in vitro; conditions: for Selectivity Index (CC50/EC50), Male: HepG2 CC50 / male worm motility EC50, 48 h
# Method: as §12, §13, §1, §14, §15, §16, §17
# [6] = test system: Fh.TRPMPZQ; assay: Ca2+ reporter (FLIPR) activation assay, Fh.TRPMPZQ in HEK293 cells; format: cell-based, Fasciola hepatica; conditions: at the tested concentrations, data not shown
# Method: (§18) Finally, selectivity for Sm.TRPMPZQ was assessed by profiling responses on the F. hepatica (Fh.TRPMPZQ) and E. granulosus (Eg.TRPMPZQ) TRPMPZQ orthologs, as well as the schistosome TRPM paralog Sm.TRPMMCLZ, a distinct TRPM channel activated by meclonazepam. Meclonazepam is an anthelmintic benzodiazepine known for its toxicity to juvenile schistosome worms.
# as §5, §3, §4, §6, §7, §8, §9, §10
# (§19) buffer containing 2.5 mM probenecid in HBSS (with Ca²⁺ and Mg²⁺), 20 mM HEPES, 0.3% BSA (Sigma, A7030), and 0.03% L-ascorbic acid (Sigma). Cells were incubated for 40 minutes at 37 °C and subsequently for 20 minutes at room temperature. A total of seven PZQ derivatives were tested, using racemic PZQ included as a positive control on each assay plate. Drug dilutions were prepared in assay buffer without dye and probenecid and dispensed into separate flat-bottom 384-well plates. Calcium flux measurements were performed at room temperature using a […]
# as §11
# [7] = test system: juvenile schistosomes; assay: Microscopy analysis of juvenile morphology and motility (viability score 0-3); conditions: 10 μM, 72 h; for number of juvenile worms with viability score 0 / number of juvenile worms with viability score 1 / number of juvenile worms with viability score 2 / number of juvenile worms with viability score 3: Table S1
# [8] = test system: juvenile schistosomes (21 days p.i.); assay: XTT juvenile viability assay; format: cell-based, Schistosoma mansoni; conditions: 100 μM, 48 h
# [9] = test system: Sm.TRPMMCLZ; assay: Ca2+ reporter (FLIPR) activation assay, Sm.TRPMMCLZ in HEK293 cells; format: cell-based, Schistosoma mansoni; conditions: at the tested concentrations, data not shown
# Method: as §18, §5, §3, §4, §6, §7, §8, §9, §10, §19, §11
# [10] = test system: Sm.TRPMPZQ; assay: Ca2+ reporter assay in antagonist mode (block of PZQ activation of Sm.TRPMPZQ); format: cell-based, Schistosoma mansoni; conditions: preincubation 1 nM-100 μM for 10 min, data not shown
# Method: The Ca^2+ reporter assay was performed using a Fluorescence Imaging Plate Reader (FLIPR) system, as described in the Supporting Information.
# as §1, §2, §3, §4, §6, §7, §8, §9, §10, §19, §11
# schistosomula after 72h of incubation using the Roboworm high-content screening assay. Auranofin (AUR) was included at 10 µM as positive control. DMSO was included as a negative control. Compounds were considered hits if both their motility and phenotype scores were lower than -0.35 and -0.15, respectively (region delimited by the […]
# (1 picture or pasted object on this page, not shown here)
# [11] = test system: S. mansoni schistosomula; assay: Roboworm high-content screening assay on schistosomula (motility and phenotype scores); format: cell-based, Schistosoma mansoni; conditions: 25 μM, 72 h
# Method: All PZQ derivatives were synthesized in the racemic form and evaluated as such. The compounds were initially screened at 10 μM against S. mansoni schistosomula using the Roboworm high-content screening assay , and were declared hits or nonhits based on their effect on parasites’ motility and phenotype scores after 72 h of incubation. As none of the compounds were considered hits at this concentration, we performed a titration from 6.25 to 50 μM (Figure S27).
# DMSO was included as a negative control. Compounds were considered hits if both their motility and phenotype scores were lower than −0.35 and −0.15, respectively (region delimited by the dashed lines). In red, PZQ analogues selected for further analysis.
# For the collection of schistosomula, B. glabrata snails infected with S. mansoni were shed for 2 h under light at 26 °C. Cercariae were collected, mechanically transformed into schistosomula as previously described.
# DMSO (0.625%, v/v) was included as a negative control. Z′ values for the assay were calculated to be 0.542 for phenotype and 0.361 for motility. […]
# Auranofin (AUR) was included at 10 µM as positive control. DMSO was included as a negative control. Compounds were considered hits if both their motility and phenotype scores were lower than -0.35 and -0.15, respectively (region delimited by the […]
# [12] = Schistosoma mansoni, 24 h, male adult worms, 24 h, single experiment or geometric mean, read-out: Male worm motility inhibition (EC50)
# [13] = Schistosoma mansoni, 48 h, male adult worms, 48 h, single experiment or geometric mean, read-out: Male worm motility inhibition (EC50)
# [14] = Schistosoma mansoni, 72 h, male adult worms, 72 h, single experiment or geometric mean, read-out: Male worm motility inhibition (EC50)
structure (smiles),measurement,setting,value
"Nc1ccc2c(c1)C1CN(C(=O)C3CCCCC3)CC(=O)N1CC2 (stereo not shown) [Compound 3, 9-NH2–PZQ]",Emax,[1],138 ± 13.2%
same,EC50,"[2]; Schistosoma mansoni, 0 h, female adult worms, 0 h (immediately after addition), single experiment or geometric mean, read-out: Female worm motility inhibition (EC50)",8.36 µM
same,EC50,"[2]; Schistosoma mansoni, 24 h, female adult worms, 24 h, single experiment or geometric mean, read-out: Female worm motility inhibition (EC50)",9.6 µM
same,EC50,"[2]; Schistosoma mansoni, 24 h, female, 24 h, individual experiments, read-out: Female worm motility inhibition (EC50), values of independent experiments",9.04 µM
same,EC50,[2]; [12],5.4 µM
same,EC50,"[2]; Schistosoma mansoni, 48 h, female adult worms, 48 h, single experiment or geometric mean, read-out: Female worm motility inhibition (EC50)",9.9 µM
same,EC50,"[2]; Schistosoma mansoni, 48 h, female, 48 h, individual experiments, read-out: Female worm motility inhibition (EC50), values of independent experiments",9.36 µM
same,EC50,[2]; [13],4.5 µM
same,EC50,"[2]; Schistosoma mansoni, 48 h, male, 48 h, individual experiments, read-out: Male worm motility inhibition (EC50), values of independent experiments",3.94 µM
same,EC50,"[2]; Schistosoma mansoni, 72 h, female adult worms, 72 h, single experiment or geometric mean, read-out: Female worm motility inhibition (EC50)",11.2 µM
same,EC50,"[2]; Schistosoma mansoni, 72 h, female, 72 h, individual experiments, read-out: Female worm motility inhibition (EC50), values of independent experiments",8.77 µM
same,EC50,[2]; [14],3.5 µM
same,EC50,"[2]; Schistosoma mansoni, 72 h, male, 72 h, individual experiments, read-out: Male worm motility inhibition (EC50), values of independent experiments",3.8 µM
same,EC50,"[2]; female adult worms, 72 h, single experiment or geometric mean, read-out: Female worm motility inhibition (EC50)",11 µM
same,EC50,"[2]; female, 24 h, individual experiments, read-out: Female worm motility inhibition (EC50), values of independent experiments",10.2 µM
same,EC50,"[2]; female, 48 h, individual experiments, read-out: Female worm motility inhibition (EC50), values of independent experiments",10.5 µM
same,EC50,"[2]; female, 72 h, individual experiments, read-out: Female worm motility inhibition (EC50), values of independent experiments",14.3 µM
same,EC50,"[2]; male, 24 h, individual experiments, read-out: Male worm motility inhibition (EC50), values of independent experiments",8.1 µM and 5.61 µM and 3.44 µM
same,EC50,"[2]; male, 48 h, individual experiments, read-out: Male worm motility inhibition (EC50), values of independent experiments",4.56 µM
same,EC50,"[2]; male, 72 h, individual experiments, read-out: Male worm motility inhibition (EC50), values of independent experiments",3.29 µM and 3.58 µM
same,EC50,[3]; 0.001 to 100 μM,7.09 ± 0.18 µM
same,Emax,"[3]; read-out: Bmax, wild-type Sm.TRPMPZQ activation",90 ± 1.31%
same,CC50 at 48 h,[4],~300 µM
same,"Selectivity Index (CC50/EC50), Female","[5]; HepG2 CC50 / female worm motility EC50, 48 h",>30
same,"Selectivity Index (CC50/EC50), Male",[5],>67
same,CC50,"[5]; human, 48 h",> 300 µM
same,activation of Fh.TRPMPZQ,[6],did not activate
same,number of juvenile worms with viability score 0,[7],38
same,number of juvenile worms with viability score 1,[7],2
same,number of juvenile worms with viability score 2,[7],14
same,number of juvenile worms with viability score 3,[7],38
same,parasite metabolic activity compared to the DMSO control group (XTT),[8],significantly decreased
same,activation of Sm.TRPMMCLZ,[9],did not activate
O=C(C1CCCCC1)N1CC(=O)N2CCc3ccc(-n4cc(COc5ccccc5)nn4)cc3C2C1 (stereo not shown) [Compound 5c],EC50 for Eg.TRPMPZQ activation,[1],No signal
same,Emax,[1],7.63 ± 0.72%
same,block of PZQ activation of Sm.TRPMPZQ (antagonist mode),[10],failed to impact subsequent responses to PZQ
same,EC50,"[2]; Schistosoma mansoni, 0 h, male adult worms, 0 h (immediately after addition), single experiment or geometric mean, read-out: Male worm motility inhibition (EC50)",> 100 µM
same,EC50,[2]; [12],> 100 µM
same,EC50,[2]; [13],> 100 µM
same,EC50,[2]; [14],> 100 µM
same,"Bmax, wild-type Sm.TRPMPZQ activation",[3],No activity
same,EC50 for wild-type Sm.TRPMPZQ activation,[3]; 0.001 to 100 μM,failed to activate; also recorded: No activity
same,CC50 at 48 h,[4],88.1 µM
same,"Selectivity Index (CC50/EC50), Male",[5],<0.9
same,"Selectivity Index (SI), sex not specified","[5]; HepG2 vs adult worms, 48 h",< 1
same,activity against juvenile schistosomes (grouped score analysis),[7],lacks activity
same,number of juvenile worms with viability score 0,[7],19
same,number of juvenile worms with viability score 1,[7],1
same,number of juvenile worms with viability score 2,[7],4
same,number of juvenile worms with viability score 3,[7],72
same,parasite metabolic activity compared to the DMSO control group (XTT),[8],no statistically significant differences
same,hit classification (motility and phenotype scores),[11],borderline

# From publication PMC12718081 (ACS Infectious Diseases, 2025)
